Test results: patent US9833002B2, “Biocide compositions” (Ecolab USA Inc., priority 2013, dated 2017)

Legend:
[1] = system: biofilm (sessile organisms) on 1018 carbon steel biostuds; experiment: Dynamic flow loop test, sessile kill study and biofilm regrowth; assay type: cell-based; details: within 24 hours
Protocol: (§1) Evaluation of the biocide compositions disclosed herein was performed through a dynamic flow loop test where both planktonic and sessile organisms could be monitored. To start this testing, fluid from the field, as well as cultured organisms from the field, were placed into the system and allowed to grow for approximately 7 weeks, providing a mature biofilm that can then be challenged by the biocide treatment.
(§2) The test system holds approximately 1.5 liters of fluid that are continually circulated over 1018 carbon steel biostuds located in the 6 o'clock position of a modified Robbin's device. The device holds a maximum of eight biostuds in the 6 o'clock position. The production fluid was pumped through the system at a rate of approximately 3.1 gallons per minute, which allows for deposition of microorganisms and solids onto the biostuds. The health of the microbial population was monitored weekly during the biofilm growth period using ATP quantification.
(§3) After concluding the establishment of a mature biofilm, the sessile kill study was initiated. […] A baseline reading was taken, during all of the studies, prior to the addition of the chemical to the individual flow loop. […]
The initial data point before treatment is set to 100% and all other readings are reported as a percent change compared to the baseline. […]

planktonic organisms = experiment: Dynamic flow loop test, planktonic kill after 4 hour contact time; assay type: cell-based; details: 112.5 ppm active THPS
Protocol: as §1, §2, §3
Planktonic kill in the dynamic flow loops was also evaluated immediately after a 4 hour contact time with the biocide.

Question: How did the “Biofilm size after treatment compared to before treatment” value [1] turn out when “tetrakis(hydroxymethyl)phosphonium sulphate [THPS]” was run?
Answer: larger than it was before treatment

Question: What about the “Planktonic kill, % reduction” value (planktonic organisms) of the same substance?
Answer: 81.8%
